Source: ChEMBL document CHEMBL3286290, “In vitro screening of pentamidine analogs against bacterial and fungal strains” (Bioorg Med Chem Lett, 2014)

Assays:
[1] = Cytotoxicity against human HeLa cells assessed as cell viability at 200 ug/ml after 48 hrs by MTT assay; type: cell-based; settings: read-out: Activity
[2] = Cytotoxicity against human A549 cells assessed as cell viability at 10 ug/ml after 72 hrs by MTT assay; type: cell-based; settings: read-out: Activity
Staphylococcus aureus [3] = experiment: Antibacterial activity against Staphylococcus aureus ATCC 6538 assessed as growth inhibition by M7-A6 method; type: functional
[4] = Cytotoxicity against human A549 cells assessed as cell viability at 10 ug/ml after 48 hrs by MTT assay; type: cell-based; settings: read-out: Activity
[5] = Cytotoxicity against human HeLa cells assessed as cell viability at 100 ug/ml after 48 hrs by MTT assay; type: cell-based; settings: read-out: Activity
HeLa [6] = experiment: Cytotoxicity against human HeLa cells assessed as inhibition of cell viability after 48 hrs by MTT assay; type: cell-based
Candida albicans [7] = experiment: Antifungal activity against Candida albicans ATCC 10231 assessed as growth inhibition by M7-A6 method; type: functional
Escherichia coli = experiment: Antibacterial activity against Escherichia coli ATCC 8739 assessed as growth inhibition by M7-A6 method; type: functional
[8] = Cytotoxicity against human A549 cells assessed as cell viability at 100 ug/ml after 72 hrs by MTT assay; type: cell-based; settings: read-out: Activity
[9] = Cytotoxicity against human HeLa cells assessed as cell viability at 200 ug/ml after 72 hrs by MTT assay; type: cell-based; settings: read-out: Activity
[10] = Cytotoxicity against human HeLa cells assessed as cell viability at 50 ug/ml after 72 hrs by MTT assay; type: cell-based; settings: read-out: Activity
Staphylococcus aureus [11] = experiment: Antibacterial activity against erythromycin, amikacin, clindamycin, ciprofloxacin, methicillin-resistant Staphylococcus aureus 15K/11 assessed as growth inhibition by M7-A6 method; type: functional
Pseudomonas aeruginosa [12] = experiment: Antibacterial activity against Pseudomonas aeruginosa ATCC 15442 assessed as growth inhibition by M7-A6 method; type: functional
Pseudomonas aeruginosa [13] = experiment: Antibacterial activity against Pseudomonas aeruginosa ATCC 9027 assessed as growth inhibition by M7-A6 method; type: functional
Staphylococcus aureus [14] = experiment: Antibacterial activity against penicillin, erythromycin, amikacin, clindamycin, ciprofloxacin, methicillin-resistant Staphylococcus aureus 495/11 assessed as growth inhibition by M7-A6 method; type: functional
HeLa [15] = experiment: Cytotoxicity against human HeLa cells assessed as inhibition of cell viability after 72 hrs by MTT assay; type: cell-based
[16] = Cytotoxicity against human A549 cells assessed as cell viability at 50 ug/ml after 72 hrs by MTT assay; type: cell-based; settings: read-out: Activity
Micrococcus luteus [17] = experiment: Antibacterial activity against Micrococcus luteus ATCC 9341 assessed as growth inhibition by M7-A6 method; type: functional
Staphylococcus aureus [18] = experiment: Antibacterial activity against penicillin, erythromycin, clindamycin, ciprofloxacin, methicillin-resistant Staphylococcus aureus 19K/11 assessed as growth inhibition by M7-A6 method; type: functional
Staphylococcus aureus [19] = experiment: Antibacterial activity against penicillin, erythromycin, amikacin, clindamycin, ciprofloxacin, methicillin-resistant Staphylococcus aureus 572/12 assessed as growth inhibition by M7-A6 method; type: functional
[20] = Cytotoxicity against human HeLa cells assessed as cell viability at 10 ug/ml after 72 hrs by MTT assay; type: cell-based; settings: read-out: Activity
[21] = Cytotoxicity against human A549 cells assessed as cell viability at 200 ug/ml after 72 hrs by MTT assay; type: cell-based; settings: read-out: Activity
[22] = Cytotoxicity against human HeLa cells assessed as cell viability at 100 ug/ml after 72 hrs by MTT assay; type: cell-based; settings: read-out: Activity
[23] = Cytotoxicity against human HeLa cells assessed as cell viability at 10 ug/ml after 48 hrs by MTT assay; type: cell-based; settings: read-out: Activity
Saccharomyces cerevisiae = experiment: Antifungal activity against Saccharomyces cerevisiae ATCC 9763 assessed as growth inhibition by M7-A6 method; type: functional
Candida albicans [24] = experiment: Antifungal activity against Candida albicans ATCC 2091 assessed as growth inhibition by M7-A6 method; type: functional
[25] = Cytotoxicity against human HeLa cells assessed as cell viability at 50 ug/ml after 48 hrs by MTT assay; type: cell-based; settings: read-out: Activity
[26] = Cytotoxicity against human A549 cells assessed as cell viability at 100 ug/ml after 48 hrs by MTT assay; type: cell-based; settings: read-out: Activity
A549 [27] = experiment: Cytotoxicity against human A549 cells assessed as inhibition of cell viability after 48 hrs by MTT assay; type: cell-based; settings: A549, 48 h
[28] = Cytotoxicity against human A549 cells assessed as cell viability at 50 ug/ml after 48 hrs by MTT assay; type: cell-based; settings: read-out: Activity
A549 [29] = experiment: Cytotoxicity against human A549 cells assessed as inhibition of cell viability after 72 hrs by MTT assay; type: cell-based; settings: A549, 72 h
Aspergillus brasiliensis = experiment: Antifungal activity against Aspergillus brasiliensis ATCC 16404 assessed as growth inhibition by M7-A6 method; type: functional
Staphylococcus aureus [30] = experiment: Antibacterial activity against penicillin, erythromycin, amikacin, clindamycin, ciprofloxacin, methicillin-resistant Staphylococcus aureus 573/12 assessed as growth inhibition by M7-A6 method; type: functional
Staphylococcus aureus [31] = experiment: Antibacterial activity against Staphylococcus aureus ATCC 6538P assessed as growth inhibition by M7-A6 method; type: functional
Micrococcus luteus [32] = experiment: Antibacterial activity against Micrococcus luteus ATCC 10240 assessed as growth inhibition by M7-A6 method; type: functional
Bacillus cereus = experiment: Antibacterial activity against Bacillus cereus ATCC 11778 assessed as growth inhibition by M7-A6 method; type: functional
[33] = Cytotoxicity against human A549 cells assessed as cell viability at 200 ug/ml after 48 hrs by MTT assay; type: cell-based; settings: read-out: Activity
Bacillus subtilis = experiment: Antibacterial activity against Bacillus subtilis ATCC 6633 assessed as growth inhibition by M7-A6 method; type: functional
Candida parapsilosis = experiment: Antifungal activity against Candida parapsilosis ATCC 22019 assessed as growth inhibition by M7-A6 method; type: functional; settings: Lodderomyces parapsilosis

Compound | viability at 48 h, 200 ug/ml [1] [%] | viability at 72 h, 10 ug/ml [2] [%] | MIC (Staphylococcus aureus [3]) [µM] | viability at 48 h, 10 ug/ml [4] [%] | viability at 48 h, 100 ug/ml [5] [%] | IC50 (HeLa [6]) [µg/mL] | MIC (Candida albicans [7]) [µM] | MIC (Escherichia coli) [µM] | viability at 72 h, 100 ug/ml [8] [%] | viability at 72 h, 200 ug/ml [9] [%] | viability at 72 h, 50 ug/ml [10] [%] | MIC (Staphylococcus aureus [11]) [µM] | MIC (Pseudomonas aeruginosa [12]) [µM] | MIC (Pseudomonas aeruginosa [13]) [µM] | MIC (Staphylococcus aureus [14]) [µM] | IC50 (HeLa [15]) [µg/mL] | viability at 72 h, 50 ug/ml [16] [%] | MIC (Micrococcus luteus [17]) [µM] | MIC (Staphylococcus aureus [18]) [µM] | MIC (Staphylococcus aureus [19]) [µM] | further results
CCCCNC(=N)c1ccc(OCCSCCOc2ccc(C(=N)NCCCC)cc2)cc1.Cl | 25.8 | 67.6 | 14 | 89.3 | 63.7 | > 100 | 3.6 | 110 | 48.5 | 18.5 | 88.3 | 230 | > 1810 | > 1810 | 230 | > 100 | 50.5 | 2.6 | 110 | 230 | viability at 72 h, 10 ug/ml [20]: 99%; viability at 72 h, 200 ug/ml [21]: 42.2%; viability at 72 h, 100 ug/ml [22]: 57.2%; viability at 48 h, 10 ug/ml [23]: 91.8%; MIC (Saccharomyces cerevisiae): 27 µM; MIC (Candida albicans [24]): 3.6 µM; viability at 48 h, 50 ug/ml [25]: 83.4%; viability at 48 h, 100 ug/ml [26]: 62.3%; IC50 (A549 [27]): > 100 µg/mL; viability at 48 h, 50 ug/ml [28]: 68.8%; IC50 (A549 [29]): ≥ 50 µg/mL; MIC (Aspergillus brasiliensis): 14 µM; MIC (Staphylococcus aureus [30]): 14 µM; MIC (Staphylococcus aureus [31]): 27 µM; MIC (Micrococcus luteus [32]): 3.6 µM; MIC (Bacillus cereus): 450 µM; viability at 48 h, 200 ug/ml [33]: 59.1%; MIC (Bacillus subtilis): 14 µM; MIC (Candida parapsilosis): 3.6 µM
Cl.N=C(N)c1ccc(SCCOCCSc2ccc(C(=N)N)cc2)cc1 | 10.1 | 56.4 | 130 | 77.1 | 10.3 | < 50 | 1070 | 540 | 8.2 | 7.4 | 7.8 | 1070 | 2150 | 1070 | 1070 | < 50 | 16.2 | 4.3 | 130 | 270 | viability at 72 h, 10 ug/ml [20]: 65.3%; viability at 72 h, 200 ug/ml [21]: 7.9%; viability at 72 h, 100 ug/ml [22]: 7.4%; viability at 48 h, 10 ug/ml [23]: 76.2%; MIC (Saccharomyces cerevisiae): 540 µM; MIC (Candida albicans [24]): 1070 µM; viability at 48 h, 50 ug/ml [25]: 10.4%; viability at 48 h, 100 ug/ml [26]: 19.8%; IC50 (A549 [27]): 50 µg/mL; viability at 48 h, 50 ug/ml [28]: 48.1%; IC50 (A549 [29]): 10 µg/mL; MIC (Aspergillus brasiliensis): 2150 µM; MIC (Staphylococcus aureus [30]): 130 µM; MIC (Staphylococcus aureus [31]): 130 µM; MIC (Micrococcus luteus [32]): 4.3 µM; MIC (Bacillus cereus): 540 µM; viability at 48 h, 200 ug/ml [33]: 9.5%; MIC (Bacillus subtilis): 130 µM; MIC (Candida parapsilosis): 270 µM
Cl.c1cc(C2=NCCN2)ccc1OCCSCCOc1ccc(C2=NCCN2)cc1 | 16.5 | 59.1 | 980 | 80.3 | 53.5 | > 100 | 240 | 980 | 34.4 | 10.7 | 68.1 | 980 | > 1960 | > 1960 | 1960 | > 100 | 49 | 9.8 | 1960 | 1960 | viability at 72 h, 10 ug/ml [20]: 67.7%; viability at 72 h, 200 ug/ml [21]: 10.2%; viability at 72 h, 100 ug/ml [22]: 41.8%; viability at 48 h, 10 ug/ml [23]: 76.9%; MIC (Saccharomyces cerevisiae): 980 µM; MIC (Candida albicans [24]): 240 µM; viability at 48 h, 50 ug/ml [25]: 68.5%; viability at 48 h, 100 ug/ml [26]: 52.6%; IC50 (A549 [27]): > 100 µg/mL; viability at 48 h, 50 ug/ml [28]: 63.6%; IC50 (A549 [29]): ≥ 50 µg/mL; MIC (Aspergillus brasiliensis): > 1960 µM; MIC (Staphylococcus aureus [30]): 1960 µM; MIC (Staphylococcus aureus [31]): 980 µM; MIC (Micrococcus luteus [32]): 9.8 µM; MIC (Bacillus cereus): 980 µM; viability at 48 h, 200 ug/ml [33]: 16.5%; MIC (Bacillus subtilis): 240 µM; MIC (Candida parapsilosis): 29 µM
Cl.N=C(NC1CCCCC1)c1ccc(OCCSCCOc2ccc(C(=N)NC3CCCCC3)cc2)cc1 | 15.3 | 69.6 | 3.2 | 84.6 | 70.8 | > 100 | 3.2 | 100 | 59.7 | 12.3 | 96.6 | 100 | > 1630 | > 1630 | 200 | > 100 | 59.2 | 3.2 | 12 | 100 | viability at 72 h, 10 ug/ml [20]: 94.6%; viability at 72 h, 200 ug/ml [21]: 54.3%; viability at 72 h, 100 ug/ml [22]: 66.9%; viability at 48 h, 10 ug/ml [23]: 95.3%; MIC (Saccharomyces cerevisiae): 24 µM; MIC (Candida albicans [24]): 3.2 µM; viability at 48 h, 50 ug/ml [25]: 95.8%; viability at 48 h, 100 ug/ml [26]: 63.9%; IC50 (A549 [27]): > 100 µg/mL; viability at 48 h, 50 ug/ml [28]: 74.9%; IC50 (A549 [29]): ≥ 50 µg/mL; MIC (Aspergillus brasiliensis): 3.2 µM; MIC (Staphylococcus aureus [30]): 12 µM; MIC (Staphylococcus aureus [31]): 3.2 µM; MIC (Micrococcus luteus [32]): 0.81 µM; MIC (Bacillus cereus): 100 µM; viability at 48 h, 200 ug/ml [33]: 61.4%; MIC (Bacillus subtilis): 12 µM; MIC (Candida parapsilosis): 3.2 µM
